# In ChEMBL document CHEMBL2396563, “Inhibitory constituents of the heartwood of Dalbergia odorifera on nitric oxide production in RAW 264.7 macrophages” (Bioorg Med Chem Lett, 2013):
# Experiments:
# [1] = Antiinflammatory activity in mouse RAW264.7 cells assessed as inhibition of LPS-induced nitric oxide production after 24 hrs by Griess assay; type: functional, cell-based; settings: RAW264.7, 24 h
# [2] = Cytotoxicity against mouse RAW264.7 cells by CCK assay; type: cell-based
SMILES,IC50 [1],Activity [2]
COc1ccc2c(c1)O[C@H]1c3ccc(O)cc3OC[C@@H]21,83.7 µM,Non-toxic
COc1cc(OC)c([C@H]2COc3cc(O)ccc3C2=O)cc1OC,> 100 µM,Non-toxic
C=C[C@H](c1cccc(O)c1)c1cc(OC)c(OC)cc1OC,70.3 µM,Non-toxic
C=C[C@H](c1ccccc1)c1cc(OC)c(OC)cc1O,73.9 µM,Non-toxic
COc1cc2c(=O)c3ccccc3oc2cc1O,> 100 µM,Non-toxic
COc1ccc([C@@]2(O)COc3cc(O)ccc3C2=O)c(OC)c1,> 100 µM,Non-toxic
COc1ccc(-c2coc3cc(O)ccc3c2=O)c(OC)c1 [2'-METHOXYFORMONETIN],> 100 µM,Non-toxic
C=C[C@H](c1ccccc1O)c1cc(OC)c(OC)cc1OC [5-O-METHYLLATIFOLIN],74 µM,Non-toxic
COc1ccc([C@@H]2COc3cc(O)ccc3C2=O)c(OC)c1OC [(3R)-3'-O-METHYLVIOLANONE],> 100 µM,Non-toxic
COc1ccc([C@@H]2COc3cc(O)ccc3C2=O)c(OC)c1 [(3R)-SATIVANONE],> 100 µM,Non-toxic
COc1ccc([C@@H]2COc3cc(O)ccc3C2=O)c(OC)c1O [(3R)-VIOLANONE],> 100 µM,Non-toxic
O=c1c(-c2ccc(O)cc2)coc2cc(O)ccc12 [DAIDZEIN],> 100 µM,Non-toxic
COc1ccc(-c2coc3cc(O)ccc3c2=O)cc1 [FORMONONETIN],56.1 µM,Non-toxic
C=C[C@H](c1ccccc1O)c1cc(O)c(OC)cc1OC [LATIFOLIN],73.2 µM,Non-toxic
COc1cc(-c2coc3cc(O)cc(O)c3c2=O)c(OC)cc1O [OLIBERGIN A],45.5 µM,Non-toxic
N=C(N)NN [PIMAGEDINE],16.6 µM,
O=C1C[C@@H](c2ccccc2)Oc2cc(O)cc(O)c21 [PINOCEMBRIN],18.1 µM,Non-toxic
COc1cc(O)c2c(c1)O[C@H](c1ccccc1)CC2=O [PINOSTROBIN],53.5 µM,Non-toxic

# The next lines start with results.
IC50 [1],SMILES,Activity [2]
> 100 µM,O=C1C[C@@H](c2cc(O)cc(O)c2)Oc2cc(O)cc(O)c21,Non-toxic
> 100 µM,COc1cc2c(cc1O)C(=O)C[C@@H](c1ccc(O)cc1)O2,Non-toxic
45.5 µM,COc1cc2oc(=O)cc(-c3ccc(O)c(O)c3)c2cc1O,Non-toxic
> 100 µM,O=C(c1ccc(O)cc1O)[C@H](O)Cc1ccc(O)c(O)c1,Non-toxic
> 100 µM,O=C(c1ccc(O)cc1O)[C@H](O)Cc1ccc(O)cc1,Non-toxic
35.1 µM,O=C(/C=C/c1ccc(O)c(O)c1)c1ccc(O)cc1O [BUTEIN],Non-toxic
72 µM,O=C(/C=C/c1ccc(O)cc1)c1ccc(O)cc1O [ISOLIQUIRITIGENIN],Non-toxic
53.2 µM,COc1cc2oc(=O)cc(-c3ccc(O)cc3)c2cc1O [MELANETTIN],Non-toxic
43.7 µM,O=c1c(-c2ccc(O)c(O)c2)coc2cc(O)cc(O)c12 [OROBOL],Non-toxic
